Experimental data taken from US20110224300A1, “USE OF POTASSIUM 2-(a- HYDROXYPENTYL) BENZOATE IN THE MANUFACTURE OF MEDICAMENTS FOR PREVENTING AND/OR TREATING SENILE [sequence]” (Institute of Mataria Medica, Chinese Academy of Me, priority 2008, published 2011).

Experiments:
SAMP8 mice = experiment: Water maze test (blind sides) in SAMP8 mice; type: in vivo
Procedure: SAMP8 were divided into three experimental groups randomly: one vehicle control group, and two dl-PHPB-treated groups (50, and 160 mg/kg). Drugs and vehicle were administered orally to SAMP8 mice for 35 days (one time/each day). The spatial learning and memory abilities of SAMP8 mice were detected by Morris water maze and DTT-2 jumping apparatus in 31-35 days. The testing was commenced at 40 min after drugs treated. The biochemical and pathology assays conducted later (in 24 h) after behavioral testing.
The water maze consisted of square black opaque plastic box (80 cm×50 cm×20 cm), of which four blind-side and a terminal stage. When a black plastic sheet (15 cm×20 cm) was placed in different locations, there were different the starting points and different number of blind side. The water maze filled with water at 25±1° C. to a depth 12 cm. Mice can be placed in different starting point, making experience with different number of blind side to the end. The number of errors into the blind side and the time to reach the end platform (escape latency) was recorded.
Each mouse was permitted to stay there for 5 s and place in the pool, allowed 3 min to find the end platform. The escape latency (time to reach the platform) was used to assess acquisition of the water maze task. Sessions was repeated for 4 consecutive days.

MDA = MDA level of brain tissues from Aβ(25-35)-induced dementia rats; type: in vivo, Male Wistar rats; settings: Aβ(25-35) rats, 2 weeks, vehicle 5.43±0.55
Procedure: The biochemical assays were conducted later (in 24 h) after behavioral testing. Eight rats in each group were anesthetized with ether and sacrificed. The brains were quickly removed and cleaned with ice-cold saline. Then the parietal cortex and hippocampus were isolated. For biochemical analysis, the tissues were weighed and homogenized in ice-cold saline with the proportion of 1:9 (w/v). Homogenization (IKA, Germany) was carried out for 2 min in an ice bath. After the homogenates were centrifuged at 2,000×g for 10 min at 4° C. (Sigma, Germany), the supernatant was used for analytical procedures. The levels of choline acetyltransferase (ChAT) SOD, and MDA activities were determined with commercial colorimetric assay kits (Nanjing Jiancheng Bioengineering Institute, China). The content of protein in the supernatant was determined by Bradford method using BSA as standard.
Rats were divided into four experimental groups randomly (10 rats/each group): one sham-operated group, one vehicle control group, and two dl-PHPB-treated groups (39, and 129 mg/kg). At 1 days after operation, drugs and vehicle were administered orally to rats for 14 days (one time/each day). The spatial learning and memory abilities of rats were detected by Morris water maze in the 9-12 days after operation. The testing of Morris water was commenced at 40 min after drugs treated. […]

SMILES: CCCCC(O)c1ccccc1C(=O)[O-].[K+] (racemic) [dl-PHPB, Potassium 2-(1-Hydroxypentyl)-benzoate]
- number of errors into the blind-side (SAMP8 mice; 50 mg/kg oral, fifth test, vehicle 6.1±1.1, P<0.05): 3.1±0.9
- escape latency time (SAMP8 mice; 50 mg/kg, last test, P<0.01 vs vehicle): significantly shorten the escape latency time
- number of errors into the blind-side (SAMP8 mice; 160 mg/kg oral, fifth test, vehicle 6.1±1.1, P<0.05): 2.7±0.3
- escape latency time (SAMP8 mice; 160 mg/kg, fourth training, P<0.05): significantly shortened the escape latency time
- escape latency time (SAMP8 mice; 160 mg/kg, last test, P<0.01 vs vehicle): significantly shorten the escape latency time
- escape latency time (SAMP8 mice; first and second trainings, each group): no significant difference
- number of errors into the blind-side (SAMP8 mice; first three trainings, vs vehicle): no significant difference
- number of errors into the blind-side (SAMP8 mice; fourth training, vs vehicle, dose not specified): significantly decreased the number of errors
- escape latency time (SAMP8 mice; third training): tendency of the shorter escape latency
- cortex MDA level (MDA; 39 mg/kg oral, P<0.05): 3.62±0.21 nmol/mg protein
- cortex MDA level (MDA; 129 mg/kg oral, P<0.01): 3.28±0.25 nmol/mg protein
